The text below walks through data of US20030100550A1, “Carboxamide diazepin derivatives, preparation method, use as medicines, pharmaceutical compositions and use thereof” (priority 2002, published 2003).

Type in all cases: biochemical
Experiment [1] concerns the target T1, Cathepsin K (Homo sapiens, UniProt P43235).
T1 sequence (P43235 115-329): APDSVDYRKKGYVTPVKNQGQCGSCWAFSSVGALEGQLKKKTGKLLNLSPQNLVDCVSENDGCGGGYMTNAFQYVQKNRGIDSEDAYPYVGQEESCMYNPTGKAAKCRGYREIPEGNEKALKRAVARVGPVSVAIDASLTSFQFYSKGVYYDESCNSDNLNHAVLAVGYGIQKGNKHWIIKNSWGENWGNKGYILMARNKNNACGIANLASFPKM
The experiment is described as follows: Study of Cathepsin K inhibition (fluorescence, Z-Val-arg-AMC). Particulars: substrate Z-Val-arg-AMC 20 μM, enzyme 5 ng/ml, 2H at ambient temperature; read-out: Cathepsin K IC50. The procedure:
Study of Cathepsin K Inhibition:
(§1) The products to be tested (10 mM) are diluted to […] in DMSO and distributed into Nunc polystyrene 96 well plates at a rate of 2 μl per well. Column 12 of the plate is reserved for the controls and therefore receives […] of DMSO (without products) per well. The plates are stored at −80° C. and thawed on the day of the experiment.
(§2) The products are diluted to 50 μM by adding 38 μl of reaction buffer: sodium acetate 100 mM, EDTA 5 mM, DTT […] pH 5.5. The addition as well as all the operations by pipette are carried out with a CybiWell 96 tip pipette. After mixing the solutions, each product is transferred into 2 wells (duplicates) of a Greiner black 384 well plate at a rate of 10 μl per well. Two 96-well plates can therefore be tested in a 384-well plate.
(§3) A solution of substrate at 50 μM, Z-Val-arg-AMC (Calbiochem), is prepared in the reaction buffer. The substrate, is then distributed into all the wells of the 384-well plate (20 μl per well).
(§4) A solution of Cathepsin K at 12.5 ng/ml is prepared in the reaction buffer and distributed into all the wells of the 384-well plate (20 μl per well) except for the 16 wells serving as 100% inhibition controls (column 23 and 24, lines I to P) which receive 20 μl of enzyme-free buffer.
(§5) The plates are then incubated 2H at ambient temperature, then read on Fluoroskan (Labsystems): excitation 390 nm; emission 460 nm
(§6) The final concentrations of each of the reagents are: products 10 μM, substrate 20 μM, enzyme 5 ng/ml.
(§7) The % inhibition for each of the products is calculated by using points at 0 and 100% inhibition of each plate as references. The products presenting a significant inhibition are then retested on a range of concentrations from 50 to 0.5 μM to determine an IC50.

Experiment [2] concerns the target T2, Papain (Carica papaya, UniProt P00784).
T2 construct: purchased Sigma
T2 sequence (P00784 134-345): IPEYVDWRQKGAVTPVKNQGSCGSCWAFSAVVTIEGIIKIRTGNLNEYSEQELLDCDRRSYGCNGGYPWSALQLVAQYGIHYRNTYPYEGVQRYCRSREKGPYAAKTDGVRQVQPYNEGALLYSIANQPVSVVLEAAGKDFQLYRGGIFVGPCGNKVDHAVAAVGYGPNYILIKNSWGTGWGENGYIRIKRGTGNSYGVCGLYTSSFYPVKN
The experiment is described as follows: Study of Papain inhibition (fluorescence). Particulars: enzyme 20 ng/ml, 30 minutes at ambient temperature. The procedure: as §1, §2, §3, §4, §5, §6, §7
Study of Papain Inhibition:
(§8) Protocol identical to that of Cathepsin K except for:
Papain (Sigma), solution at 50 ng/ml, final concentration 20 ng/ml
Incubation for 30 minutes at ambient temperature

Experiment [3] addresses T3, Cathepsin B (Homo sapiens, UniProt P07858).
T3 construct: purchased Calbiochem
The experiment is described as follows: Study of Cathepsin B inhibition (fluorescence, Z-arg-arg-AMC). Particulars: for IC50: substrate Z-arg-arg-AMC 20 μM, enzyme 16 ng/ml, 1 hour at ambient temperature; for Cathepsin B, percentage in parentheses beside IC50 value (% inhibition): printed beside 20 μM, meaning not explained. The procedure:
as §1, §2, §3, §4, §5, §6, §7
Study of Cathepsin B Inhibition:
as §8
Z-arg-arg-AMC substrate (Calbiochem), solution at 50 μM, final concentration 20 μM
Cathepsin B (Calbiochem), solution at 40 ng/ml, final concentration 16 ng/ml
Incubation for 1 hour at ambient temperature

For orientation: IC50 means the midpoint of a concentration-inhibition curve. With `C=CCOC(=O)CC[C@H](NC(=O)[C@@H]1CCCN2C(=O)CC[C@H](NC(=O)Nc3ccc(Oc4ccccc4)cc3)C(=O)N12)C(=O)CSc1nnnn1-c1ccccc1` [Example 128, (2-propenyl)(4S)6-[(1-phenyl-1H-tetrazol-5-yl)thio]-4-[[[(1S,9S)-9-[[[(4-phenoxyphenyl)amino]carbonyl]amino]-octahydro-6,10-dioxo-6H-pyridazino[1,2-a][1,2]diazepine-1-yl]carbonyl]amino]-5-oxo-hexanoate], the 50% inhibitory concentration (IC50) is 20 µM in experiment [1] and 6 µM in experiment [2].
The compound `C=CCOC(=O)CC[C@H](NC(=O)[C@@H]1CCCN2C(=O)CC[C@H](NC(=O)Nc3ccc(Oc4ccccc4)cc3)C(=O)N12)C(=O)CSc1nc2ccccc2s1` [Example 129, (2-propenyl)(4S)6-[(benzothiazol-2-yl)thio]-4-[[[(1S,9S)-9-[[[(4-phenoxyphenyl)amino]carbonyl]amino]-octahydro-6,10-dioxo-6H-pyridazino[1,2-a][1,2]diazepine-1-yl]carbonyl]amino]-5-oxo-hexanoate] came in with an IC50 in experiment [2] of 4 µM.
`C=CCOC(=O)CC[C@H](NC(=O)[C@@H]1CCCN2C(=O)CC[C@H](NC(=O)Nc3ccc(Oc4ccccc4)cc3)C(=O)N12)C(=O)CSCc1ccc(OC)cc1` [Example 130, (2-propenyl)(4S)6-[[(4-methoxyphenyl)methyl]thio]-4-[[[(1S,9S)-9-[[[(4-phenoxyphenyl)amino]carbonyl]amino]-octahydro-6,10-dioxo-6H-pyridazino[1,2-a][1,2]diazepine-1-yl]carbonyl]amino]-5-oxo-hexanoate]: the figures for the half-inhibitory concentration (IC50) in experiment [1] and in experiment [2] were 20 µM and 6 µM, respectively.
`O=C(Nc1ccc(Oc2ccccc2)cc1)N[C@H]1CCC(=O)N2CCC[C@@H](C(=O)N[C@@H](Cc3ccccc3)C(=O)COC(=O)Cc3ccsc3)N2C1=O` [Example 216, 9-[(9S)-[[(4-phenoxyphenyl)amino]carbonyl]amino]-N-[(2S)-1-phenyl-4-[1-oxo-2-(3-thienyl)ethoxy]-3-oxo-2-butyl]-octahydro-6,10-dioxo-6H-(1S)-pyridazino[1,2-a][1,2]diazepine-1-carboxamide] gave an IC50 in experiment [2] of 6 µM.
Turning to `CS(=O)(=O)N[C@H]1CCC(=O)N2CCC[C@@H](C(=O)N[C@@H](Cc3ccccc3)C(=O)COC(=O)c3c(Cl)cccc3Cl)N2C1=O` [Example 234, 9-[(9S)-(methylsulphonyl)amino]-N-[(2S)-1-phenyl-4-[(-2,6-dichlorobenzoyl)oxy]-3-oxo-2-butyl]-octahydro-6,10-dioxo-6H-(1S)-pyridazino[1,2-a][1,2]diazepine-1-carboxamide], the 50% inhibitory concentration (IC50) amounted to 20 µM in experiment [1] and 18 µM in experiment [3].
Compound `O=C(CSc1nc2ccccc2s1)[C@H](Cc1ccccc1)NC(=O)[C@@H]1CCCN2C(=O)CC[C@H](NS(=O)(=O)c3ccc(C(F)(F)F)cc3)C(=O)N12` [Example 241, 9-[(9S)-[[[4-(trifluoromethyl)phenyl]sulphonyl]amino]-N-[(2S)-1-phenyl-4-(2-benzothiazolyl)thio]-3-oxo-2-butyl]-octahydro-6,10-dioxo-6H-(1S)-pyridazino[1,2-a][1,2]diazepine-1-carboxamide] returned an IC50 in experiment [2] of 7 µM.
Turning to `CC(C)C[C@H](NC(=O)[C@@H]1CCCN2C(=O)CC[C@H](NS(C)(=O)=O)C(=O)N12)C(=O)COC(=O)c1c(Cl)cccc1Cl` [Example 304, 9-[(9S)-(methylsulphonyl)amino]-N-[(3S)-5-methyl-1-[(2,6-dichlorobenzoyl)oxy]-2-oxo-3-hexyl]-octahydro-6,10-dioxo-6H-(1S)-pyridazino[1,2-a][1,2]diazepine-1-carboxamide], the figures for the IC50 in experiment [1] and in experiment [3] were 12 µM and 1.5 µM, respectively.
For `CC(C)C[C@H](NC(=O)[C@@H]1CCCN2C(=O)CC[C@H](NS(=O)(=O)c3ccc4ccccc4c3)C(=O)N12)C(=O)COC(=O)c1c(Cl)cccc1Cl` [Example 322, 9-[(9S)-[(2-naphthalenyl)sulphonyl]amino]-N-[(3S)-5-methyl-1-[(2,6-dichlorobenzoyl)oxy]-2-oxo-3-hexyl]-octahydro-6,10-dioxo-6H-(1S)-pyridazino[1,2-a][1,2]diazepine-1-carboxamide] the same measures were 20 µM and 6 µM.
For `CC(C)C[C@H](NC(=O)[C@@H]1CCCN2C(=O)CC[C@H](NS(=O)(=O)c3ccc(C(F)(F)F)cc3)C(=O)N12)C(=O)C=[N+]=[N-]` [Example 347, 9-[(9S)-[[4-(trifluoromethyl)phenyl]sulphonyl]amino]-N-((3S)-1-diazo-5-methyl-2-oxo-3-hexyl)-octahydro-6,10-dioxo-6H-(1S)-pyridazino[1,2-a][1,2]diazepine-1-carboxamide], in experiment [1], the IC50 is 12 µM. The “Cathepsin B, percentage in parentheses beside IC50 value (% inhibition)” value in experiment [3] turned out to be 25%.
The compound `COc1cccc(C(=O)N[C@H]2CCC(=O)N3CCC[C@@H](C(=O)N[C@H](C(=O)CSc4nc5ccccc5s4)C(C)C)N3C2=O)c1` [Example 366, 9-[(9S)-(3-methoxybenzoyl)amino]-N-[(3S)-1-[(benzothiazol-2-yl)thio]-4-methyl-2-oxo-3-pentyl]-octahydro-6,10-dioxo-6H-(1S)-pyridazino[1,2-a][1,2]diazepine-1-carboxamide] showed an IC50 in experiment [2] of 17 µM.
On the same count and under the same terms, then `CC(C)[C@H](NC(=O)[C@@H]1CCCN2C(=O)CC[C@H](NC(=O)NCCc3cccs3)C(=O)N12)C(=O)CSc1nc2ccccc2s1` [Example 398, 9-[(9S)-[[[2-(thien-2-yl)-ethyl]amino]carbonyl]amino]-N-[(3S)-1-[(benzothiazol-2-yl)thio]-4-methyl-2-oxo-3-pentyl]-octahydro-6,10-dioxo-6H-(1S)-pyridazino[1,2-a][1,2]diazepine-1-carboxamide], with 9 µM.
Turning to `C[C@H](NC(=O)[C@@H]1CCCN2C(=O)CC[C@H](NC(=O)NC3CCCCC3)C(=O)N12)C(=O)COC(=O)c1c(Cl)cccc1Cl` [Example 433, 9-[(9S)-[(cyclohexylamino)carbonyl]amino]-N-[(2S)-4-[(2,6-dichlorobenzoyl)oxy]-3-oxo-2-butyl]-octahydro-6,10-dioxo-6H-(1S)-pyridazino[1,2-a][1,2]diazepine-1-carboxamide], the values for the IC50 in experiment [1] and in experiment [3] were 20 µM and 4 µM, respectively.
The corresponding values for `C[C@H](NC(=O)[C@@H]1CCCN2C(=O)CC[C@H](NC(=O)Nc3ccc(Oc4ccccc4)cc3)C(=O)N12)C(=O)COC(=O)c1c(Cl)cccc1Cl` [Example 453, 9-[(9S)-[[(4-phenoxyphenyl)amino]carbonyl]amino]-N-[(2S)-4-[(2,6-dichlorobenzoyl)oxy]-3-oxo-2-butyl]-octahydro-6,10-dioxo-6H-(1S)-pyridazino[1,2-a][1,2]diazepine-1-carboxamide] are 20 µM and 9 µM.
For `C[C@H](NC(=O)[C@@H]1CCCN2C(=O)CC[C@H](NC(=O)NCCc3cccs3)C(=O)N12)C(=O)COC(=O)c1c(Cl)cccc1Cl` [Example 473, 9-[(9S)-[[[2-(thien-2-yl)-ethyl]amino]carbonyl]amino]-N-[(2S)-4-[(2,6-dichlorobenzoyl)oxy]-3-oxo-2-butyl]-octahydro-6,10-dioxo-6H-(1S)-pyridazino[1,2-a][1,2]diazepine-1-carboxamide] the same measures were 20 µM and 1.5 µM.
Take “(2-propenyl)(4S)6-diazo-4-[[[(1S,9S)-9-[[[[2-(p-2-yl)-ethyl]amino]carbonyl]amino]-octahydro-6,10-dioxo-6H-pyridazino[1,2-a][1,2]diazepine-1-yl]carbonyl]amino]-5-oxo-hexanoate [Example 44]”: the IC50 in experiment [1] is 2 µM. The “Cathepsin B, percentage in parentheses beside IC50 value (% inhibition)” value in experiment [3] stood at 40%.
